The source of these data is US20230129258A1, “HETEROTANDEM BICYCLIC PEPTIDE COMPLEXES” (BicycleTx Limited, priority 2019, published 2023).

Entries after “also recorded” stand apart in the source; their conditions may differ. Starred links: 1 amine or outer side, 2 acyl side, 3 side chain; linkers in the order of their positions; H or OH if unused. Positions of bridges follow the written chain, without caps; N, C: chain ends. Non-standard residues stand in square brackets, D forms with d. Chains are numbered I, II in the order given. X1 = O=C(CCOCCOCCOCCN(CCOCCOCCOCCn1cc(CCC(=O)[*:2])nn1)CCOCCOCCOCCn1cc(CCC(=O)[*:3])nn1)[*:1]; TATA = O=C(CC[*:1])N1CN(C(=O)CC[*:2])CN(C(=O)CC[*:3])C1; d1Nal = N[C@H](Cc1cccc2ccccc12)C(=O)O; Hyp = O=C(O)[C@@H]1C[C@@H](O)CN1; hArg = N=C(N)NCCCC[C@H](N)C(=O)O; tBuAla = CC(C)(C)C[C@H](N)C(=O)O; Nle = CCCC[C@H](N)C(=O)O

The nature of data set [1]: Pharmacokinetics in cynomolgus monkey. The data set is classed as in vivo. To be noted: plasma. Here is the method: Serial bleeding (about 1.2 ml blood/time point) was performed from a peripheral vessel from restrained, non-sedated animals at each time point into a commercially available tube containing Potassium (K2) EDTA*2H2O (0.85-1.15 mg) on wet ice and processed for plasma. Samples were centrifuged (3,000×g for 10 minutes at 2 to 8° C.) immediately after collection. 0.1 mL plasma was transferred into labelled polypropylene micro-centrifuge tubes. 5-fold of the precipitant including internal standard 100 ng/mL Labetalol & 100 ng/mL dexamethasone & 100 ng/mL tolbutamide & 100 ng/mL Verapamil & 100 ng/mL Glyburide & 100 ng/mL Celecoxib in MeOH was immediately added into the plasma, mixed well and centrifuged at 12,000 rpm for 10 minutes at 2 to 8° C. Samples of supernatant were transferred into the pre-labeled polypropylene microcentrifuge tubes, and frozen over dry ice. The samples were stored at −60° C. or below until LC-MS/MS analysis. An aliquot of 40 μL calibration standard, quality control, single blank and double blank samples were added to the 1.5 mL tube. Each sample (except the double blank) was quenched with 200 μL IS1 respectively (double blank sample was quenched with 200 μL MeOH with 0.5% tritonX-100), and then the mixture was vortex-mixed well (at least 15 s) with vortexer and centrifuged for 15 min at 12000 g, 4° C. A 10 μL supernatant was injected for LC-MS/MS analysis using an Orbitrap Q Exactive in positive ion mode to determine the concentrations of analyte. Plasma concentration versus time data were analyzed by non-compartmental approaches using the Phoenix WinNonlin 6.3 software program. C0, CI, Vdss, T½, AUC(0-last), AUC(0-inf), MRT(0-last), MRT(0-inf) and graphs of plasma concentration versus time profile were reported.

For another data set, the target named is CD137 (Homo sapiens, UniProt Q07011). Description: SPR (Biacore) binding to immobilized human CD137. To be noted: for off rate (koff) from immobilized CD137: avidity from two CD137 binding bicycles; for affinity to immobilized CD137 (human), in words: reported KD may be an overestimation. More on the design: purchased R&D systems. As for the experimental part:
Biacore experiments were performed to determine ka (M^−1s^−1), kd (s^−1), KD (nM) values of heterotandem peptides binding to human CD137 protein. […] The protein was desalted to remove uncoupled biotin using spin columns into PBS.
For analysis of peptide binding, a Biacore T200 or a Biacore 3000 instrument was used with a XanTec CMD500D chip. Streptavidin was immobilized on the chip using standard amine-coupling chemistry at 25° C. with HBS-N (10 mM HEPES, 0.15 M NaCl, pH 7.4) as the running buffer. Briefly, the carboxymethyl dextran surface was activated with a 7 min injection of a 1:1 ratio of 0.4 M 1-ethyl-3-(3-dimethylaminopropyl) carbodiimide hydrochloride (EDC)/0.1 M N-hydroxy succinimide (NHS) at a flow rate of 10 μl/min. For capture of streptavidin, the protein was diluted to 0.2 mg/ml in 10 mM sodium acetate (pH 4.5) and captured by injecting 120 μl of onto the activated chip surface. Residual activated groups were blocked with a 7 min injection of 1 M ethanolamine (pH 8.5) and biotinylated CD137 captured to a level of 270-1500 RU. Buffer was changed to PBS/0.05% Tween 20 and a dilution series of the peptides was prepared in this buffer with a final DMSO concentration of 0.5%. The top peptide concentration was 500 nM with 6 further 2-fold or 3-fold dilutions. The SPR analysis was run at 25° C. at a flow rate of 90 μl/min with 60 seconds association and 900 seconds dissociation. After each cycle a regeneration step (10 μl of 10 mM glycine pH 2) was employed. Data were corrected for DMSO excluded volume effects as needed. All data were double-referenced for blank injections and reference surface using standard processing procedures and data processing and kinetic fitting were performed using Scrubber software, version 2.0c (BioLogic Software). Data were fitted using simple 1:1 binding model allowing for mass transport effects where appropriate.

Data set [2] can be described thus: Pharmacokinetics in CD1 mice. The data set is classed as in vivo, CD-1 mice. Here is the method: Serial bleeding (about 80 μL blood/time point) was performed via submandibular or saphenous vein at each time point. All blood samples were immediately transferred into prechilled microcentrifuge tubes containing 2 μL K2-EDTA (0.5M) as anti-coagulant and placed on wet ice. Blood samples were immediately processed for plasma by centrifugation at approximately 4° C., 3000 g. The precipitant including internal standard was immediately added into the plasma, mixed well and centrifuged at 12,000 rpm, 4° C. for 10 minutes. The supernatant was transferred into pre-labeled polypropylene microcentrifuge tubes, and then quick-frozen over dry ice. The samples were stored at […] or below as needed until analysis. 7.5 μL of the supernatant samples were directly injected for LC-MS/MS analysis using an Orbitrap Q Exactive in positive ion mode to determine the concentrations of analyte. Plasma concentration versus time data were analyzed by non-compartmental approaches using the Phoenix WinNonlin 6.3 software program. C0, CI, Vdss, T½, AUC(0-last), AUC(0-inf), MRT(0-last), MRT(0-inf) and graphs of plasma concentration versus time profile were reported.

CD137, sequence (Q07011 24-255): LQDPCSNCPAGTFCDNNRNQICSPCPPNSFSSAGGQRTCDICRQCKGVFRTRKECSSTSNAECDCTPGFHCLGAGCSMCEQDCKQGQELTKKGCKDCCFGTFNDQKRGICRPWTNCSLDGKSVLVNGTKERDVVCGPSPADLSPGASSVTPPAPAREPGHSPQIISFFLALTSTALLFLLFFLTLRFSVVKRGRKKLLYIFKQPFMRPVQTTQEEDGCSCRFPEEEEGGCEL

As to “I: A[hArg]DC[Hyp]LVNPLCLEP[d1Nal]WTC-NH2 / II: Ac-C[tBuAla]PE[dK]PYCFADPY[Nle]CA-NH2 / III: Ac-C[tBuAla]PE[dK]PYCFADPY[Nle]CA-NH2 (linker I:4-I:11-I:18, II:1-II:8-II:15, III:1-III:8-III:15 via TATA; linker I:N-II:5-III:5 via X1) [BCY13272]”, the clearance in data set [1] (9.2 mg/kg IV infusion (15 min), read-out: clearance) was determined as 4.1 mL/min/kg; in data set [2] (male, CD-1, mouse, plasma, 5.5 mg/kg IV, n=3, read-out: Clearance) it was 7.5 mL/min/kg. In addition, the Vd is 0.82 L/kg in data set [1] (9.2 mg/kg IV infusion (15 min), read-out: volume of distribution at steady state (Vdss)) and 1.1 L/kg in data set [2] (male, CD-1, mouse, plasma, 5.5 mg/kg IV, n=3, read-out: volume of distribution (Vdss)). Further, the half-life in data set [1] (IV infusion (15 min), 9.2 mg/kg, read-out: T1/2 (converted)) was 8.9 h; in data set [1] (IV infusion (15 min), dose 9.2 mg/kg, 8.9 mg/kg, read-out: terminal half life (converted)), 8.9 h; in data set [2] (male, CD-1, mouse, plasma, 5.5 mg/kg IV, n=3, read-out: terminal plasma half life (converted)), 2.9 h. Further, on CD137, the “off rate (koff) from immobilized CD137” value is “very slow”. For the same molecule, at CD137, the “affinity to immobilized CD137 (human), in words” value was “high affinity”.

As a reminder, the bioavailability is dose-corrected exposure relative to a reference, in per cent. `CCCC[C@@H]1NC(=O)[C@H](Cc2ccc(O)cc2)NC(=O)[C@@H]2CCCN2C(=O)[C@H](CC(=O)O)NC(=O)[C@H](C)NC(=O)[C@H](Cc2ccccc2)NC(=O)[C@@H]2CSCCC(=O)N3CN(CN(C3)C(=O)CCSC[C@@H](C(=O)N[C@@H](C)C(N)=O)NC1=O)C(=O)CCSC[C@H](NC(C)=O)C(=O)N[C@@H](CC(C)(C)C)C(=O)N1CCC[C@H]1C(=O)N[C@@H](CCC(=O)O)C(=O)N[C@H](CCCCNC(=O)CCc1cn(CCOCCOCCOCCN(CCOCCOCCOCCC(=O)N[C@H]3CSCCC(=O)N4CN5CN(C4)C(=O)CCSC[C@H](NC(=O)[C@@H](CC(=O)O)NC(=O)[C@H](Cc4cccc6ccccc46)NC(=O)[C@@H]4CCCN4C3=O)C(=O)N[C@@H](CCSC)C(=O)N[C@@H](CCCCNC(=N)N)C(=O)N[C@@H](CC(=O)O)C(=O)N[C@@H](Cc3c[nH]c4ccccc34)C(=O)N[C@@H](CO)C(=O)N[C@@H]([C@@H](C)O)C(=O)N3CCC[C@H]3C(=O)N3C[C@H](O)C[C@H]3C(=O)N[C@@H](Cc3c[nH]c4ccccc34)C(=O)N[C@H](C(N)=O)CSCCC5=O)CCOCCOCCOCCn3cc(CCC(=O)NCCCC[C@H]4NC(=O)[C@H](CCC(=O)O)NC(=O)[C@@H]5CCCN5C(=O)[C@H](CC(C)(C)C)NC(=O)[C@@H](NC(C)=O)CSCCC(=O)N5CN6CN(C5)C(=O)CCSC[C@H](NC(=O)[C@H](Cc5ccc(O)cc5)NC(=O)[C@@H]5CCCN5C4=O)C(=O)N[C@@H](Cc4ccccc4)C(=O)N[C@@H](C)C(=O)N[C@@H](CC(=O)O)C(=O)N4CCC[C@H]4C(=O)N[C@@H](Cc4ccc(O)cc4)C(=O)N[C@@H](CCCC)C(=O)N[C@H](C(=O)N[C@@H](C)C(N)=O)CSCCC6=O)nn3)nn1)C(=O)N1CCC[C@H]1C(=O)N[C@@H](Cc1ccc(O)cc1)C(=O)N2` [BCY11863]: the Vd in data set [1] (0.93 mg/kg IV infusion (30 min), read-out: Vdss) was 0.62 L/kg; in data set [1] (0.97 mg/kg IV infusion (15 min), read-out: Vdss) it was 0.91 L/kg; in data set [1] (1 mg/kg IV infusion, n=2, read-out: volume of distribution at steady state (Vdss)) it was 0.62 L/kg; in data set [1] (9.4 mg/kg IV infusion (15 min), read-out: Vdss), 1.1 L/kg; in data set [2] (male, mouse, plasma, CD-1 mice, 0.96 mg/kg IV Bolus, read-out: Vdss) it was 2.9 L/kg; in data set [2] (male, mouse, plasma, CD-1 mice, 5.6 mg/kg IV Bolus, read-out: Vdss) it was 1.6 L/kg. Moreover, the Vd in data set [2] (male, mouse, plasma, CD-1 mice, 12 mg/kg IV Bolus, read-out: Vdss) was 2.5 L/kg; in data set [2] (male, mouse, plasma, CD-1 mice, 32 mg/kg IV Bolus, read-out: Vdss) it was 2.1 L/kg. Also, the clearance is 4.8 mL/min/kg in data set [1] (0.97 mg/kg IV infusion (15 min), read-out: Clp); 3.9 mL/min/kg in data set [1] (9.4 mg/kg IV infusion (15 min), read-out: Clp); 21 mL/min/kg in data set [2] (male, mouse, plasma, CD-1 mice, 0.96 mg/kg IV Bolus, read-out: Clp); 9.7 mL/min/kg in data set [2] (male, mouse, plasma, CD-1 mice, 5.6 mg/kg IV Bolus, read-out: Clp); 17 mL/min/kg in data set [2] (male, mouse, plasma, CD-1 mice, 12 mg/kg IV Bolus, read-out: Clp). For the same molecule, the half-life in data set [1] (0.97 mg/kg IV infusion (15 min), read-out: T1/2 (converted)) was 4.5 h; in data set [1] (9.4 mg/kg IV infusion (15 min), read-out: T1/2 (converted)), 8.9 h; in data set [2] (male, CD-1, mouse, plasma, 15 mg/kg, mice, after IP injection, read-out: circulating plasma half-life (converted)) it was 2.5 h; in data set [2] (male, mouse, plasma, CD-1 mice, 0.96 mg/kg IV Bolus, read-out: T½ (converted)), 1.7 h; in data set [2] (male, mouse, plasma, CD-1 mice, 5.6 mg/kg IV Bolus, read-out: T½ (converted)) it was 2.6 h; in data set [2] (male, mouse, plasma, CD-1 mice, 12 mg/kg IV Bolus, read-out: T½ (converted)), 2.6 h. Also, the half-life in data set [2] (male, mouse, plasma, CD-1 mice, 15.5 mg/kg IP, read-out: T½ (converted)) is 2.5 h; in data set [2] (male, mouse, plasma, CD-1 mice, 32 mg/kg IV Bolus, read-out: T½ (converted)), 2.4 h. Also, the “off rate (koff) from immobilized CD137” value at CD137 was “extremely slow; also recorded: very slow”. Further, the “affinity to immobilized CD137 (human), in words” value at CD137 is listed as “high affinity”. Besides, the “bioavailability from IP dosing” value in data set [2] (IP dosing) was “high”. Moreover, the “clearance (in words)” value in data set [2] (IV study) was “low clearance molecule”. Further, in data set [2] (IV study), the “volume of distribution (in words)” value is given as “volume of distribution larger than plasma volume”. For the same molecule, the bioavailability in data set [2] (male, mouse, plasma, CD-1 mice, 15.5 mg/kg IP) stood at 100%.
